In data set [1] the test system is Puccinia recondita f. sp. tritici. Description: Puccinia recondita f. sp. tritici / wheat / leaf disc curative (brown rust). As to conditions: foliar, 24 h, wheat leaf segments cv. Kanzler, curative (applied 1 day after inoculation), compared to untreated control leaf disks, read-out: disease control. Type of data set: in vivo. As to the method: Puccinia recondita f. sp. tritici/Wheat/Leaf Disc Curative (Brown Rust) Wheat leaf segments cv. Kanzler are placed on agar in multiwell plates (24-well format). The leaf segments are inoculated with a spore suspension of the fungus. Plates were stored in darkness at 19° C. and 75% rh. The formulated test compound diluted in water was applied 1 day after inoculation.

For data set [2] the test system is unchanged. The data set is described as follows: Puccinia recondita f. sp. tritici / wheat / leaf disc preventative (brown rust). The data set is classed as in vivo. The settings on record: foliar, wheat leaf segments cv. Kanzler, compared to untreated control leaf disks, read-out: disease control. As to the method:
Puccinia recondita f. sp. tritici/Wheat/Leaf Disc Preventative (Brown Rust) Wheat leaf segments cv. Kanzler were placed on agar in multiwell plates (24-well format) and sprayed with the formulated test compound diluted in water. The leaf disks were inoculated with a spore suspension of the fungus 1 day after application. The inoculated leaf segments were incubated at 19° C. and 75% rh under a light regime of 12 h light/12 h darkness in a climate cabinet and the activity of a compound was assessed as percent disease control compared to untreated when an appropriate level of disease damage appears in untreated check leaf segments (7-9 days after application).

For a further data set, the system named is Phakopsora pachyrhizi. The data set is described as follows: Phakopsora pachyrhizi / soybean / leaf disk preventative (soybean rust). The data set is classed as in vivo. The settings on record: foliar, soybean leaf disks, compared to untreated control leaf disks, read-out: disease control. As to the method: Phakopsora pachyrhizi/Soybean/Leaf Disk Preventative (Soybean Rust) Four-week old soybean plants are sprayed in a spray chamber with the formulated test compound diluted in water. Leaf disks are cut from treated plants and placed on agar into 24-well plates one day after application. Leaf disks are inoculated by spraying them with a spore suspension on their lower leaf surface. After an incubation period in a climate cabinet of 24-36 hours in darkness at 20° C. and 75% rh, the leaf disks are then kept at 20° C. with 12 h light/day and 75% rh. The percentage leaf disk area covered by disease is assessed when an appropriate level of disease appears on untreated check plants (12-14 days after application).

The test system of data set [3] is Blumeria graminis f. sp. tritici (Erysiphe graminis f. sp. tritici). The data set is described as follows: Blumeria graminis f. sp. tritici / wheat / leaf disc preventative (powdery mildew on wheat). The settings on record: foliar, wheat leaf segments cv. Kanzler, compared to untreated control leaf disks, read-out: disease control. Type of data set: in vivo. An excerpt:
Blumeria graminis f. sp. tritici (Erysiphe graminis f. sp. tritici)/Wheat/Leaf Disc Preventative (Powdery Mildew on Wheat) Wheat leaf segments cv. Kanzler were placed on agar in a multiwell plate (24-well format) and sprayed with the formulated test compound diluted in water. The leaf disks were inoculated by shaking powdery mildew infected plants above the test plates 1 day after application.

The source of these data is patent US10723695B2, “Microbiocidal phenylamidine derivatives” (SYNGENTA PARTICIPATIONS AG, priority 2015, dated 2020).

In general, melting point refers to the temperature of the solid-liquid transition.

Turning to `CCN(C)/C=N/c1cc(OC)c(C(O)(C2CCC2)C(F)(F)F)cc1C` (stereo not shown) [Compound E1.069], the pest or weed control at 200 ppm (in data set [1]; in data set [2]; with Phakopsora pachyrhizi; in data set [3]) was no less than 80% throughout.
Regarding `C=C(C)CC(O)(c1cc(C)c(/N=C/N(C)CC)cc1OC)C(F)(F)F` (stereo not shown) [Compound E1.075], the pest or weed control at 200 ppm (in data set [1]; in data set [2]; with Phakopsora pachyrhizi; in data set [3]) was no less than 80% each time.
As to `CCN(C)/C=N/c1cc(OC)c(C(O)(C=C(C)C)C(F)(F)F)cc1C` (stereo not shown) [Compound E1.076], the pest or weed control at 200 ppm (in data set [1]; in data set [2]; with Phakopsora pachyrhizi; in data set [3]) was no less than 80% in each case.
Consider `C=CC(O)(c1cc(C)c(/N=C/N(C)CC)cc1OC)C(F)(F)F` (stereo not shown) [Compound E1.077], for which the pest or weed control at 200 ppm (in data set [1]; in data set [2]; in the data set on Phakopsora pachyrhizi; in data set [3]) was no less than 80% each time.
Regarding `C=C(C)C(O)(c1cc(C)c(/N=C/N(C)CC)cc1OC)C(F)(F)F` (stereo not shown) [Compound E1.078], the pest or weed control at 200 ppm (in data set [1]; in data set [2]; in the data set on Phakopsora pachyrhizi; in data set [3]) was no less than 80% in each case.
In the case of `C#CCC(O)(c1cc(C)c(/N=C/N(C)CC)cc1OC)C(F)(F)F` (stereo not shown) [Compound E1.083], the pest or weed control at 200 ppm (in data set [1]; in data set [2]; with Phakopsora pachyrhizi; in data set [3]) was no less than 80% each time.
For the molecule `CCN(C)/C=N/c1cc(OC)c(C(O)(Cc2ccccc2)C(F)(F)F)cc1C` (stereo not shown) [Compound E1.086], the pest or weed control at 200 ppm (in data set [1]; in data set [2]; in the data set with Phakopsora pachyrhizi; in data set [3]) was no less than 80% in each case.
As for `CCN(C)/C=N/c1cc(OC)c(C(O)(Cc2ccc(C)cc2)C(F)(F)F)cc1C` (stereo not shown) [Compound E1.087], the pest or weed control at 200 ppm (in data set [1]; in data set [2]; in the data set with Phakopsora pachyrhizi; in data set [3]) was no less than 80% each time.
`CCN(C)/C=N/c1cc(OC)c(C(O)(Cn2ncc3ccccc32)C(F)(F)F)cc1C` (stereo not shown) [Compound E1.093]: the pest or weed control at 200 ppm (in data set [1]; in data set [2]; in the data set on Phakopsora pachyrhizi; in data set [3]) was no less than 80% in each case.
As to `CCN(C)/C=N/c1cc(OC)c(C(O)(Cn2nc(C)c(C)c2C)C(F)(F)F)cc1C` (stereo not shown) [Compound E1.095], the pest or weed control at 200 ppm (in data set [1]; in data set [2]; in the data set with Phakopsora pachyrhizi; in data set [3]) was no less than 80% in each case.
On to `CCN(C)/C=N/c1cc(OC)c(C(O)(Cc2ccnc(F)c2)C(F)(F)F)cc1C` (stereo not shown) [Compound E1.101], for which the pest or weed control at 200 ppm (in data set [1]; in data set [2]; in the data set on Phakopsora pachyrhizi; in data set [3]) was no less than 80% throughout.
For the molecule `CCN(C)/C=N/c1cc(OC)c(C(O)(c2cc3ccccc3s2)C(F)(F)F)cc1C` (stereo not shown) [Compound E1.103], the pest or weed control at 200 ppm (in data set [1]; in data set [2]; in the data set on Phakopsora pachyrhizi; in data set [3]) was no less than 80% in each case.
In the case of `CCN(C)/C=N/c1cc(OC)c(C(O)(c2ccc(C)s2)C(F)(F)F)cc1C` (stereo not shown) [Compound E1.104], the pest or weed control at 200 ppm (in data set [1]; in data set [2]; with Phakopsora pachyrhizi; in data set [3]) was no less than 80% in each case.
Turning to `CCN(C)/C=N/c1cc(OC)c(C(O)(c2cccs2)C(F)(F)F)cc1C` (stereo not shown) [Compound E1.105], the pest or weed control at 200 ppm (in data set [1]; in data set [2]; in the data set with Phakopsora pachyrhizi; in data set [3]) was no less than 80% throughout.
With `CCN(C)/C=N/c1cc(OC)c(C(O)(c2cccc(Cl)n2)C(F)(F)F)cc1C` (stereo not shown) [Compound E1.106], the pest or weed control at 200 ppm (in data set [1]; in data set [2]; in the data set with Phakopsora pachyrhizi; in data set [3]) was no less than 80% in each case.
Regarding `CCN(C)/C=N/c1cc(OC)c(C(O)(c2cccnc2OC)C(F)(F)F)cc1C` (stereo not shown) [Compound E1.112], the pest or weed control at 200 ppm (in data set [1]; in data set [2]; with Phakopsora pachyrhizi; in data set [3]) was no less than 80% throughout.
Regarding `CCN(C)/C=N/c1cc(OC(C)C)c(C(O)(c2ccccc2)C(F)(F)F)cc1C` (stereo not shown) [Compound E1.115], the melting point fell in the range of 119 to 120 °C.
Turning to `CCCCC(O)(c1cc(Cl)c(/N=C/N(C)CC)cc1OC)C(F)(F)F` (stereo not shown) [Compound E1.117], the pest or weed control at 200 ppm (in data set [1]; in data set [2]; in the data set with Phakopsora pachyrhizi; in data set [3]) was no less than 80% each time.
In the case of `CCN(C)/C=N/c1cc(OC)c(C(O)C(F)(F)Cl)cc1C` (stereo not shown) [Compound E1.118], the pest or weed control at 200 ppm (in data set [1]; in data set [2]; in the data set with Phakopsora pachyrhizi; in data set [3]) was no less than 80% throughout.
Regarding `CCN(C)/C=N/c1cc(OC)c(C(O)(C(C)C)C(F)(F)Cl)cc1C` (stereo not shown) [Compound E1.119], the pest or weed control at 200 ppm (in data set [1]; in data set [2]; with Phakopsora pachyrhizi; in data set [3]) was no less than 80% throughout.
In the case of `CCN(C)/C=N/c1cc(OC)c(C(O)(C2CC2)C(F)(F)Cl)cc1C` (stereo not shown) [Compound E1.120], the pest or weed control at 200 ppm (in data set [1]; in data set [2]; with Phakopsora pachyrhizi; in data set [3]) was no less than 80% throughout.
`C=CCC(O)(c1cc(C)c(/N=C/N(C)CC)cc1OC)C(F)(F)Cl` (stereo not shown) [Compound E1.121]: the pest or weed control at 200 ppm (in data set [1]; in data set [2]; in the data set with Phakopsora pachyrhizi; in data set [3]) was no less than 80% each time.
As to `CCN(C)/C=N/c1cc(OC)c(C(O)(c2ccccc2)C(F)(F)Cl)cc1C` (stereo not shown) [Compound E1.122], the pest or weed control at 200 ppm (in data set [1]; in data set [2]; in the data set with Phakopsora pachyrhizi; in data set [3]) was no less than 80% throughout.
Consider `CCN(C)/C=N/c1cc(OC)c(C(O)c2ccccc2)cc1C` (stereo not shown) [Compound E1.123], for which the pest or weed control at 200 ppm (in data set [1]; in data set [2]; in the data set with Phakopsora pachyrhizi; in data set [3]) was no less than 80% in each case.
`COc1cc(/N=C/N(C)C(C)C)c(C)cc1C(O)(c1ccc(F)c(F)c1)C(F)(F)F` (stereo not shown) [Compound E1.127] yielded a melting point of 116 to 118 °C.
The molecule `CCN(C)/C=N/c1cc(OC)c(C(O)(c2ccc(F)c(F)c2)C(F)(F)F)cc1C` (stereo not shown) [Compound E1.128] gave a melting point of 108 to 110 °C.
Regarding `COc1cc(/N=C/N(C)C(C)C)c(C)cc1C(O)(c1cccc(F)c1C)C(F)(F)F` (stereo not shown) [Compound E1.131], the melting point was 127 to 129 °C.
`CCN(C)/C=N/c1cc(OC)c(C(O)(c2cccc(F)c2C)C(F)(F)F)cc1C` (stereo not shown) [Compound E1.132] gave a melting point of 107 to 109 °C.
In turn, `CCN(/C=N/c1cc(OC)c(C(O)(C(C)C)C(F)(F)F)cc1C)CC` (stereo not shown) [Compound E1.133] came in with a melting point of 60 to 62 °C.
As for `CCCCC(O)(c1cc(C)c(/N=C/N2CCCC2)cc1OC)C(F)(F)F` (stereo not shown) [Compound E1.134], the melting point was 103 to 105 °C.
In the case of `COc1cc(/N=C/N(C)C(C)C)c(C)cc1C(O)(c1cc(F)ccc1F)C(F)(F)F` (stereo not shown) [Compound E1.135], the melting point was 112 to 115 °C.
Take `COc1cc(/N=C/N2CCCC2)c(C)cc1C(O)(C(C)C)C(F)(F)F` (stereo not shown) [Compound E1.135]: the melting point is 102 to 104 °C.
Molecule `COc1cc(/N=C/N2CCCC2)c(C)cc1C(O)(c1ccccc1)C(F)(F)F` (stereo not shown) [Compound E1.135] gave a melting point of 157 to 159 °C.
Same read-out and setting: to `COc1cc(/N=C/N(C)C)c(C)cc1C(O)(c1ccccc1)C(F)(F)F` (stereo not shown) [Compound E1.137] belongs 133 to 135 °C.
